In patent US10112941B2, “Tricyclic compounds as anticancer agents” (BRISTOL-MYERS SQUIBB COMPANY, priority 2013, dated 2018):

Target: BRD4 (Homo sapiens, UniProt O60885)
Experiment: Time Resolved Fluorescence Resonance Energy Transfer (TR-FRET) binding assay, BRD4
Conditions: one of the FRET assays described; read-out: FRET BRD4 IC50

`Cc1nnn(C)c1-c1cnc2c3cc(F)c(C(C)(O)C4CC4)cc3n([C@H](c3ccccc3)C3CCOCC3)c2c1` (single isomer, unassigned) [Example 443] and `Cc1nnn(C)c1-c1cnc2c3cc(F)c(C(C)(O)C4CC4)cc3n([C@H](c3ccccc3F)C3CCOCC3)c2c1` (single isomer, unassigned) [Example 447] cannot be ordered by IC50: under 5 nM for the first, under 5 nM for the second.

`Cc1nnn(C)c1-c1cnc2c3cc(F)c(C(C)(O)C4CC4)cc3n([C@H](c3ccccc3)C3CCOCC3)c2c1` (single isomer, unassigned) [Example 444] and `Cc1nnn(C)c1-c1cnc2c3cc(F)c(C(C)(O)C4CC4)cc3n([C@H](c3ccccc3F)C3CCOCC3)c2c1` (single isomer, unassigned) [Example 448] cannot be ordered by IC50: under 5 nM for the first, under 5 nM for the second.

`Cc1nnn(C)c1-c1cnc2c3cc(F)c(C(C)(O)C4CC4)c(F)c3n([C@H](c3ccccc3)C3CCOCC3)c2c1` (single isomer, unassigned) [Example 449] and `Cc1nnn(C)c1-c1cnc2c3ccc(C(C)(C)O)cc3n([C@H](c3ccccc3F)C3CCOCC3)c2c1` [Example 64] cannot be ordered by IC50: under 5 nM for the first, under 5 nM for the second.

`Cc1nnn(C)c1-c1cnc2c3cc(F)c(C(C)(O)C4CC4)c(F)c3n([C@H](c3ccccc3)C3CCOCC3)c2c1` (single isomer, unassigned) [Example 450] and `Cc1nnn(C)c1-c1cnc2c3ccc(C(C)(C)O)cc3n([C@@H](c3ccccc3F)C3CCOCC3)c2c1` [Example 65] cannot be ordered by IC50: under 5 nM for the first, under 5 nM for the second.

`[2H]C([2H])([2H])c1nnn(C)c1-c1cnc2c3ccc(C(C)(C)O)c(F)c3n(C(c3ncccc3F)C3CCC(F)(F)CC3)c2c1` (single isomer, unassigned) [Example 456] and `[2H]C([2H])([2H])c1nnn(C)c1-c1cnc2c3ccc(C(C)(C)O)c(F)c3n(C(c3ncccc3F)C3CCOCC3)c2c1` (single isomer, unassigned) [Example 458] cannot be ordered by IC50: under 5 nM for the first, under 5 nM for the second.

`[2H]C([2H])([2H])c1nnn(C)c1-c1cnc2c3ccc(C(C)(C)O)cc3n(C(c3cc(Cl)ccn3)C3CCOCC3)c2c1` (single isomer, unassigned) [Example 457] and `Cc1nnn(C)c1-c1cnc2c3ccc(C(C)(C)O)cc3n([C@H](c3ccccn3)C3CCOCC3)c2c1` [Example 62] cannot be ordered by IC50: under 5 nM for the first, under 25 nM for the second.

`Cc1nnc(C)n1-c1cnc2c3ccc(C(C)(C)O)cc3n(C(c3ccccc3)C3CCOCC3)c2c1` (stereo in doubt) [Example 357, 2-[3-(Dimethyl-4H-1,2,4-triazol-4-yl)-5-[(R)-oxan-4-yl(phenyl)methyl]-5H-pyrido[3,2-b]indol-7-yl]propan-2-ol] and `Cn1nnc(CO)c1-c1cnc2c3ccc(C(C)(C)O)cc3n([C@H](c3ccccc3)C3CCOCC3)c2c1` [Example 88, (S)-2-(3-(4-(Hydroxymethyl)-1-methyl-1H-1,2,3-triazol-5-yl)-5-(phenyl(tetrahydro-2H-pyran-4-yl)methyl)-5H-pyrido[3,2-b]indol-7-yl)propan-2-ol] cannot be ordered by IC50: under 5 nM for the first, under 5 nM for the second.

`CCC(CC)n1c2cc(C(C)(C)O)ccc2c2ncc(-c3c(C)noc3C)cc21` [Example 4] and `COCC(c1ccccc1)n1c2cc(C(C)(C)O)ccc2c2ncc(-c3c(C)noc3C)cc21` (stereo not shown) [Example 5] cannot be ordered by IC50: under 25 nM for the first, under 5 nM for the second.

`Cc1noc(C)c1-c1cnc2c3ccc(C(C)(C)O)cc3n([C@@H](CCC(F)(F)F)c3ccccc3)c2c1` [Example 9] and `Cc1noc(C)c1-c1cnc2c3ccc(C(C)(C)O)cc3n([C@H](CCC(F)(F)F)c3ccccc3)c2c1` [Example 10] cannot be ordered by IC50: under 5 nM for the first, under 25 nM for the second.

`Cc1noc(C)c1-c1cnc2c3ccc(C(C)(C)O)cc3n([C@H](c3ccccc3)C3CC3)c2c1` [Example 11] and `Cc1noc(C)c1-c1cnc2c3ccc(C(C)(C)O)cc3n([C@@H](c3ccccc3)C3CC3)c2c1` [Example 12] cannot be ordered by IC50: under 25 nM for the first, under 25 nM for the second.

`Cc1noc(C)c1-c1cnc2c3ccc(C(C)(C)O)cc3n([C@H](c3ccccc3)C3CCC3)c2c1` [Example 13] and `Cc1noc(C)c1-c1cnc2c3ccc(C(C)(C)O)cc3n([C@@H](c3ccccc3)C3CCC3)c2c1` [Example 14] cannot be ordered by IC50: under 5 nM for the first, under 25 nM for the second.

`Cc1noc(C)c1-c1cnc2c3ccc(C(C)(C)O)cc3n([C@H](c3ccc(F)cc3)C3CCC3)c2c1` [Example 15] and `Cc1noc(C)c1-c1cnc2c3ccc(C(C)(C)O)cc3n([C@@H](c3ccc(F)cc3)C3CCC3)c2c1` [Example 16] cannot be ordered by IC50: under 5 nM for the first, under 25 nM for the second.

`Cc1noc(C)c1-c1cnc2c3ccc(C(C)(C)O)cc3n([C@H](c3ccc(F)cc3)C3CCOC(C)(C)C3)c2c1` (stereo partly shown) [Example 17] and `Cc1noc(C)c1-c1cnc2c3ccc(C(C)(C)O)cc3n([C@@H](c3ccc(F)cc3)C3CCOC(C)(C)C3)c2c1` (stereo partly shown) [Example 18] cannot be ordered by IC50: under 25 nM for the first, under 1500 nM for the second.

`Cc1noc(C)c1-c1cnc2c3ccc(C(C)(C)O)cc3n([C@H](CCC(F)(F)F)c3cscn3)c2c1` [Example 19] and `Cc1noc(C)c1-c1cnc2c3ccc(C(C)(C)O)cc3n([C@@H](CCC(F)(F)F)c3cscn3)c2c1` [Example 20] cannot be ordered by IC50: under 5 nM for the first, under 25 nM for the second.

`Cc1noc(C)c1-c1cnc2c3ccc(C(C)(C)O)cc3n([C@H](c3ccccn3)C3CCOCC3)c2c1` [Example 21] and `Cc1noc(C)c1-c1cnc2c3ccc(C(C)(C)O)cc3n([C@@H](c3ccccn3)C3CCOCC3)c2c1` [Example 22] cannot be ordered by IC50: under 5 nM for the first, under 5 nM for the second.

`Cc1noc(C)c1-c1cnc2c3ccc(C(C)(C)O)cc3n([C@@H](CCC(F)(F)F)c3ccccn3)c2c1` [Example 23] and `Cc1noc(C)c1-c1cnc2c3ccc(C(C)(C)O)cc3n([C@H](CCC(F)(F)F)c3ccccn3)c2c1` [Example 24] cannot be ordered by IC50: under 5 nM for the first, under 1500 nM for the second.

`Cc1noc(C)c1-c1cnc2c3ccc(C(C)(C)O)cc3n(C(C3CCC3)C3CCC3)c2c1` [Example 31, 2-[5-(Dicyclobutylmethyl)-3-(dimethyl-1,2-oxazol-4-yl)-5H-pyrido[3,2-b]indol-7-yl]propan-2-ol] and `Cc1noc(C)c1-c1cnc2c3ccc(C(C)(C)O)cc3n(CC3CCOCC3)c2c1` [Example 47] cannot be ordered by IC50: under 5 nM for the first, under 25 nM for the second.

`Cc1noc(C)c1-c1cnc2c3ccc(C(=O)O)cc3n(C(c3ccccc3)C3CCOCC3)c2c1` (stereo not shown) [Example 44, 3-(Dimethyl-1,2-oxazol-4-yl)-5-[oxan-4-yl(phenyl)methyl]-5H-pyrido[3,2-b]indole-7-carboxylic acid] and `Cc1noc(C)c1-c1cnc2c3ccc(C(=O)O)cc3n(C(c3ccccc3)c3ccccc3)c2c1` [Example 45, 3-(Dimethyl-1,2-oxazol-4-yl)-5-(diphenylmethyl)-5H-pyrido[3,2-b]indole-7-carboxylic acid] cannot be ordered by IC50: under 5 nM for the first, under 5 nM for the second.

`Cc1noc(C)c1-c1cnc2c3ccc(C(C)(C)O)cc3n(Cc3ccccc3)c2c1` [Example 46, 2-[5-Benzyl-3-(dimethyl-1,2-oxazol-4-yl)-5H-pyrido[3,2-b]indol-7-yl]propan-2-ol] and `Cc1noc(C)c1-c1cnc2c3ccc(C(C)(C)O)cc3n(Cc3ccc(F)cc3)c2c1` [Example 48] cannot be ordered by IC50: under 1500 nM for the first, under 25 nM for the second.

`Cc1noc(C)c1-c1cnc2c3ccc(C(C)(C)O)cc3n(CC3CCC(F)(F)CC3)c2c1` [Example 49] and `Cc1noc(C)c1-c1cnc2c3ccc(C(C)(C)O)cc3n([C@@H](CCC(F)(F)F)c3ccccc3Cl)c2c1` [Example 86] cannot be ordered by IC50: under 5 nM for the first, under 5 nM for the second.

`Cc1noc(C)c1-c1cnc2c3ccc(C(F)F)cc3n(Cc3ccccc3)c2c1` [Example 50, 4-[5-Benzyl-7-(difluoromethyl)-5H-pyrido[3,2-b]indol-3-yl]-3,5-dimethyl-1,2-oxazole] and `Cc1noc(C)c1-c1cnc2c3ccc(S(C)(=O)=O)cc3n(Cc3ccccc3)c2c1` [Example 52, 4-(5-Benzyl-7-(methylsulfonyl)-5H-pyrido[3,2-b]indol-3-yl)-3,5-dimethyl-1,2-oxazole] cannot be ordered by IC50: under 1500 nM for the first, under 25 nM for the second.

`Cc1noc(C)c1-c1cnc2c3ccccc3n(Cc3ccccc3)c2c1` [Example 51, 4-(5-Benzyl-5H-pyrido[3,2-b]indol-3-yl)-3,5-dimethyl-1,2-oxazole] and `Cc1noc(C)c1-c1cnc2c3c(C(C)(C)O)cccc3n(Cc3ccccc3)c2c1` [Example 53, 2-[5-Benzyl-3-(dimethyl-1,2-oxazol-4-yl)-5H-pyrido[3,2-b]indol-9-yl]propan-2-ol] cannot be ordered by IC50: under 1500 nM for the first, under 1500 nM for the second.

`Cc1nnn(C)c1-c1cnc2c3ccc(C(C)(C)O)cc3n([C@@H](CCC(F)(F)F)c3ccccc3)c2c1` [Example 57] and `Cc1nnn(C)c1-c1cnc2c3ccc(C(C)(C)O)cc3n([C@H](CCC(F)(F)F)c3ccccc3)c2c1` [Example 58] cannot be ordered by IC50: under 5 nM for the first, under 5 nM for the second.

`Cc1nnn(C)c1-c1cnc2c3ccc(C(C)(C)O)cc3n([C@@H](c3ccccn3)C3CCOCC3)c2c1` [Example 63] and `Cc1nnn(C)c1-c1cnc2c3ccc(C(C)(C)O)cc3n([C@H](c3ccccc3F)C3CCOCC3)c2c1` [Example 76] cannot be ordered by IC50: under 25 nM for the first, under 5 nM for the second.

`Cc1nnn(C)c1-c1cnc2c3ccc(C(C)(C)O)cc3n(Cc3ccccc3)c2c1` [Example 69, 2-[5-Benzyl-3-(dimethyl-1H-1,2,3-triazol-5-yl)-5H-pyrido[3,2-b]indol-7-yl]propan-2-ol] and `[2H][C@@](c1ccccc1)(C1CCOCC1)n1c2cc(C(C)(C)O)ccc2c2ncc(-c3c(C)nnn3C)cc21` [Example 90, 2-[3-(Dimethyl-1H-1,2,3-triazol-5-yl)-5-[(S)-oxan-4-yl(phenyl)(^2H)methyl]-5H-pyrido[3,2-b]indol-7-yl]propan-2-ol] cannot be ordered by IC50: under 5 nM for the first, under 5 nM for the second.

`Cc1nnn(C)c1-c1cnc2c3ccc(C(C)(C)O)cc3n([C@H](c3ccc(F)cc3)C3CCOCC3)c2c1` [Example 72] and `Cc1nnn(C)c1-c1cnc2c3ccc(C(C)(C)O)cc3n([C@@H](c3ccccc3F)C3CCOCC3)c2c1` [Example 77] cannot be ordered by IC50: under 25 nM for the first, under 5 nM for the second.

`Cc1noc(C)c1-c1cnc2c3ccc(C(C)(C)O)cc3n([C@H](CCC(F)(F)F)c3ccccc3C(F)(F)F)c2c1` [Example 84] and `Cc1noc(C)c1-c1cnc2c3ccc(C(C)(C)O)cc3n([C@H](CCC(F)(F)F)c3ccccc3Cl)c2c1` [Example 87] cannot be ordered by IC50: under 1500 nM for the first, under 1500 nM for the second.

`COCc1nnn(C)c1-c1cnc2c3ccc(C(C)(C)O)cc3n([C@H](c3ccccc3)C3CCOCC3)c2c1` [Example 89, 2-{3-[4-(Methoxymethyl)-1-methyl-1H-1,2,3-triazol-5-yl]-5-[(S)-oxan-4-yl(phenyl)methyl]-5H-pyrido[3,2-b]indol-7-yl}propan-2-ol] gave an IC50 of under 25 nM.
